Laboratory results from publication PMC7489219 (Molecular Brain, 2020).
Counter-ions that a name gives are not always drawn.

System: T1, primary mouse cortical neurons
T1 construct: primary cortical neurons, DIV 10
Test: cells
Set-up: Protection from NMDA-induced (30 uM, 10 min) neuronal death; Hoechst nuclear morphology by automated microscopy
Conditions: Cortical neurone, 20 h, read-out: % inhibition, inhibition of NMDA-induced cell death (protection score), 30 min pre-treatment
Procedure: On DIV 10, compounds were applied to the cells reaching an end concentration of 10 μM. Cells were incubated for 30 min at 37 °C, 5% CO2 before adding NMDA (30 μM). Cells were incubated for another 10 min in the incubator, then washed twice with defined minimal medium containing 10 μM of the respective compound and incubated for an additional 20 h before readout. Untreated (no NMDA) and NMDA-only stimulated wells were treated with 0.1% DMSO. […] After 15 min of incubation at room temperature, cells were washed twice with phosphate buffered saline. […] Dead neurons were identified by amorphous or shrunken nuclei using CellProfiler and CellProfiler Analyst software. For all cell death analyses the experimental unit (N) is defined as an independent experiment using an independent neuronal preparation. For each independent experiment, data from 3 replicate wells (i.e., from 36 images), representing an average of 3000 cells was analyzed per condition. The survival rate S was calculated by dividing the number of living cells by the total number of cells. The survival rate was then used to calculate the protection score according to Scompound−Svehicle/Suntreated−Svehicle×100=%protection , where ‘compound’ refers to compound + NMDA treatment, ‘vehicle’ refers to vehicle + NMDA treatment, and ‘untreated’ refers to DMSO control. […] As a proof of principle, we next used our assay to screen two commercially available drug libraries. In these screens, primary cortical cells were incubated with test compounds at 10 μM concentration for 30 min before addition of 30 μM NMDA. After 10 min NMDA treatment, cells were washed with fresh medium and kept in the presence of test compounds for 20 h until assessment of cell viability. […] This library covers structurally diverse drugs from several fields such as oncology, cardiology, immunology, and neurology/psychiatry.

| SMILES | inhibition at 10 µM [%] |
| --- | --- |
| CCCCCCOC(=O)NC(=N)c1ccc(NCc2nc3cc(C(=O)N(CCC(=O)OCC)c4ccccn4)ccc3n2C)cc1 [BIBR-1048 (Dabigatran)] | 0.466 |
| O=c1cc(-c2ccccc2)oc2cc(O)c(O)c(O)c12 [Baicalein] | -2.71 |
| O=C(O)[C@H]1O[C@@H](Oc2cc3oc(-c4ccccc4)cc(=O)c3c(O)c2O)[C@H](O)[C@@H](O)[C@@H]1O [Baicalin] | -3.47 |
| CCOC(=O)[C@H](CCc1ccccc1)N[C@H]1CCc2ccccc2N(CC(=O)O)C1=O [Benazepril hydrochloride] | -11.1 |
| Cn1c(CCCC(=O)O)nc2cc(N(CCCl)CCCl)ccc21 [Bendamustine HCL] | 9.61 |
| NC(CO)C(=O)NNCc1ccc(O)c(O)c1O (stereo not shown) [Benserazide] | 6.78 |
| COc1ccc2cc3[n+](cc2c1OC)CCc1cc2c(cc1-3)OCO2 [Berberine Hydrochloride] | -2.08 |
| COc1c(O)cc2c(c1O)[C@@H]1O[C@H](CO)[C@@H](O)[C@H](O)[C@H]1OC2=O [Bergenin (Cuscutin)] | 1.66 |
| CCC(=O)OCC(=O)[C@@]1(OC(=O)CC)[C@@H](C)C[C@H]2[C@@H]3CCC4=CC(=O)C=C[C@]4(C)[C@@]3(F)[C@@H](O)C[C@@]21C [Betamethasone dipropionate] | 6.47 |
| CCCCC(=O)O[C@]1(C(=O)CO)[C@@H](C)C[C@H]2[C@@H]3CCC4=CC(=O)C=C[C@]4(C)[C@@]3(F)[C@@H](O)C[C@@]21C [Betamethasone valerate (Betnovate)] | 6.58 |
| C[C@H]1C[C@H]2[C@@H]3CCC4=CC(=O)C=C[C@]4(C)[C@H]3C(=O)C[C@]2(C)[C@@]1(O)C(=O)CO [Betapar (Meprednisone)] | 11.6 |
| CC(C[N+](C)(C)C)OC(N)=O (stereo not shown) [Bethanechol chloride] | -1.35 |
| C[C@@H](O)[C@H]1C(=O)N2C(C(=O)[O-])=C(SC3Cn4cnc[n+]4C3)[C@H](C)[C@H]12 (stereo partly shown) [Biapenem] | 3.3 |
| CC(O)(CS(=O)(=O)c1ccc(F)cc1)C(=O)Nc1ccc(C#N)c(C(F)(F)F)c1 (stereo not shown) [Bicalutamide (Casodex)] | -3.38 |
| CCNC(=O)CCC/C=C\C[C@@H]1[C@@H](/C=C/[C@@H](O)CCc2ccccc2)[C@H](O)C[C@@H]1O [Bimatoprost] | 9.97 |
| COc1ccc(-c2coc3cc(O)cc(O)c3c2=O)cc1 [Biochanin A (4-Methylgenistein)] | 3 |
| CC(C)NCC(O)COc1ccc(COCCOC(C)C)cc1 (stereo not shown) [Bisoprolol] | 10 |
| Cc1c(N)nc([C@H](CC(N)=O)NC[C@H](N)C(N)=O)nc1C(=O)N[C@H](C(=O)N[C@H](C)[C@@H](O)[C@H](C)C(=O)N[C@H](C(=O)NCCc1nc(-c2nc(C(=O)NCCC[S+](C)C)cs2)cs1)[C@@H](C)O)[C@@H](O[C@@H]1O[C@@H](CO)[C@@H](O)[C@H](O)[C@@H]1O[C@H]1O[C@H](CO)[C@@H](O)[C@H](OC(N)=O)[C@@H]1O)c1cnc[nH]1 [Bleomycin sulfate] | -2.58 |
| CC(C)C[C@H](NC(=O)[C@H](Cc1ccccc1)NC(=O)c1cnccn1)B(O)O [Bortezomib (Velcade)] | -4.79 |
| CCCC1O[C@@H]2C[C@H]3[C@@H]4CCC5=CC(=O)C=C[C@]5(C)[C@H]4[C@@H](O)C[C@]3(C)[C@]2(C(=O)CO)O1 (stereo partly shown) [Budesonide] | -9.49 |
| CCCCNc1cc(C(=O)O)cc(S(N)(=O)=O)c1Oc1ccccc1 [Bumetanide] | -2.16 |
| CCCCN1CCCCC1C(=O)Nc1c(C)cccc1C (stereo not shown) [Bupivacaine hydrochloride (Marcain)] | -1.92 |
| CS(=O)(=O)OCCCCOS(C)(=O)=O [Busulfan (Myleran, Busulfex)] | 15.7 |
| CCCC[N+]1(C)[C@@H]2CC(OC(=O)[C@H](CO)c3ccccc3)C[C@H]1[C@@H]1O[C@@H]12 (stereo partly shown) [Butylscopolamine bromide (Scopolamine butylbromide)] | 5 |
| O=C(O)/C=C/c1ccc(O)c(O)c1 [Caffeic acid] | -2.37 |

| SMILES | inhibition at 10 µM [%] |
| --- | --- |
| CC[C@@]1(O)C(=O)OCc2c1cc1n(c2=O)Cc2cc3ccccc3nc2-1 [Camptothecin] | -13.4 |
| CCOc1nc2cccc(C(=O)OC(C)OC(=O)OC3CCCCC3)c2n1Cc1ccc(-c2ccccc2-c2nn[nH]n2)cc1 (stereo not shown) [Candesartan cilexetil (Atacand)] | 7.42 |
| CCCCCOC(=O)Nc1nc(=O)n([C@@H]2O[C@H](C)[C@@H](O)[C@H]2O)cc1F [Capecitabine (Xeloda)] | 3.74 |
| COc1cc(CNC(=O)CCCC/C=C/C(C)C)ccc1O [Capsaicin] | -2.28 |
| NC(=O)N1c2ccccc2C=Cc2ccccc21 [Carbamazepine (Carbatrol)] | 2.33 |
| C[C@@](Cc1ccc(O)c(O)c1)(NN)C(=O)O [Carbidopa] | -2.32 |
| C=CC1=C(C(=O)O)N2C(=O)[C@@H](NC(=O)/C(=N\O)c3csc(N)n3)[C@H]2SC1 [Cefdinir (Omnicef)] | 44.5 |
| CO/N=C(\C(=O)N[C@@H]1C(=O)N2C(C(=O)OCOC(=O)C(C)(C)C)=C(/C=C\c3scnc3C)CS[C@H]12)c1csc(N)n1 [Cefditoren pivoxil] | 8.16 |
| Cc1ccc(-c2cc(C(F)(F)F)nn2-c2ccc(S(N)(=O)=O)cc2)cc1 [Celecoxib] | -7.05 |
| O=C(O)COCCN1CCN(C(c2ccccc2)c2ccc(Cl)cc2)CC1 (stereo not shown) [Cetirizine Dihydrochloride] | -10.5 |
| C[C@H](CCC(=O)O)[C@H]1CC[C@H]2[C@@H]3[C@H](O)C[C@@H]4C[C@H](O)CC[C@]4(C)[C@H]3CC[C@]12C [Chenodeoxycholic acid] | -2.92 |
| O=C(N[C@H](CO)[C@H](O)c1ccc([N+](=O)[O-])cc1)C(Cl)Cl [Chloramphenicol (Chloromycetin)] | 0.272 |
| O=C(/C=C/c1ccc(O)c(O)c1)O[C@@H]1C[C@](O)(C(=O)O)C[C@@H](O)[C@H]1O [Chlorogenic acid] | -2.16 |
| NS(=O)(=O)c1cc2c(cc1Cl)N=CNS2(=O)=O [Chlorothiazide] | 31.3 |
| Oc1c(Cl)cc(Cl)c2cccnc12 [Chloroxine] | -4.86 |
| CN(C)CCCN1c2ccccc2Sc2ccc(Cl)cc21 [Chlorpromazine (Sonazine)] | -4.78 |
| CN(C)CC/C=C1/c2ccccc2Sc2ccc(Cl)cc21 [Chlorprothixene] | -2.97 |
| O=c1cc(-c2ccccc2)oc2cc(O)cc(O)c12 [Chrysin] | -0.0506 |
| Cc1cc(O)c2c(c1)C(=O)c1cccc(O)c1C2=O [Chrysophanic acid (Chrysophanol)] | 8.58 |
| COCCOC(=O)C1=C(C)NC(C)=C(C(=O)OC/C=C/c2ccccc2)C1c1cccc([N+](=O)[O-])c1 (stereo not shown) [Cilnidipine] | -16 |
| O=C1CCc2cc(OCCCCc3nnnn3C3CCCCC3)ccc2N1 [Cilostazol] | -13.8 |
| CN/C(=N\CCSCc1nc[nH]c1C)NC#N [Cimetidine (Tagamet)] | -0.847 |
| C=C[C@H]1CN2CC[C@H]1C[C@H]2[C@H](O)c1ccnc2ccccc12 [Cinchonidine] | -3.04 |
| Nc1nc(Cl)nc2c1ncn2[C@H]1C[C@H](O)[C@@H](CO)O1 [Cladribine] | -1.65 |
